Laboratory results as given in ChEMBL document CHEMBL3885881, “DrugMatrix”.

Organism: Rattus norvegicus
Assay: DrugMatrix - Regimen: Daily Repeat
Assay type: toxicity, organism-based, Sprague-Dawley
Set-up: regimen Daily Repeat, gender Male, age 6-8 weeks
Conditions: in vivo, po, route oral GAVAGE, vehicle .5 % CMC; for BASOPHIL / EOSINOPHIL / ERYTHROCYTE COUNT / HEMATOCRIT / HEMOGLOBIN / LEUKOCYTE COUNT / LYMPHOCYTE / MEAN CORPUSCULAR HEMOGLOBIN / MEAN CORPUSCULAR HEMOGLOBIN CONCENTRATION / MEAN CORPUSCULAR VOLUME / MONOCYTE / NEUTROPHIL / PLATELET COUNT: tissue Blood; for ALANINE AMINOTRANSFERASE / ALBUMIN / ALKALINE PHOSPHATASE / ASPARTATE AMINOTRANSFERASE / BLOOD UREA NITROGEN / CHLORIDE / CHOLESTEROL / CREATINE PHOSPHOKINASE / CREATININE / GLUCOSE / PHOSPHORUS / POTASSIUM / SODIUM / TOTAL BILIRUBIN / TOTAL PROTEIN: tissue Plasma
[1] = 0 mg/kg, 72 h, dose level Control, time 3 day
[2] = 0 mg/kg, 120 h, dose level Control, time 5 day
[3] = 21 mg/kg, 72 h, dose level Low, time 3 day
[4] = 21 mg/kg, 120 h, dose level Low, time 5 day

`Cc1onc(-c2ccccc2)c1-c1ccc(S(N)(=O)=O)cc1` [VALDECOXIB] was tested, and the BASOPHIL [1] was 0.68%, the EOSINOPHIL [1] was 0.46% and the “ERYTHROCYTE COUNT” value [1] was 7.15 x10E6/uL. For the same compound, the HEMATOCRIT [1] was 45.44%, the HEMOGLOBIN [1] was 14.1 G/DL and the “LEUKOCYTE COUNT” value [1] was 9.78 x10E3/uL. The LYMPHOCYTE [1] was 84.44%, the “MEAN CORPUSCULAR HEMOGLOBIN” value [1] was 19.72 pg and the “MEAN CORPUSCULAR HEMOGLOBIN CONCENTRATION” value [1] was 31 G/DL. For the same compound, the “MEAN CORPUSCULAR VOLUME” value [1] was 63.66 fL, the MONOCYTE [1] was 2.14% and the NEUTROPHIL [1] was 11.16%. For the same compound, the “PLATELET COUNT” value [1] was 1378.2 x10E3/uL, the “ALANINE AMINOTRANSFERASE” value [1] was 42.33 u/L and the ALBUMIN [1] was 3.8 G/DL. For the same compound, the “ALKALINE PHOSPHATASE” value [1] was 388.17 u/L, the “ASPARTATE AMINOTRANSFERASE” value [1] was 68 u/L and the “BLOOD UREA NITROGEN” value [1] was 16.17 mg/dL. The CHLORIDE [1] was 96.67 MEQ/L, the CHOLESTEROL [1] was 71 mg/dL and the “CREATINE PHOSPHOKINASE” value [1] was 156.17 u/L. The CREATININE [1] was 0.57 mg/dL, the GLUCOSE [1] was 193.67 mg/dL and the PHOSPHORUS [1] was 11.43 mg/dL. For the same compound, the POTASSIUM [1] was 7 MEQ/L, the SODIUM [1] was 140.33 MEQ/L and the “TOTAL BILIRUBIN” value [1] was 0.48 mg/dL. For the same compound, the “TOTAL PROTEIN” value [1] was 6.8 G/DL, the BASOPHIL [2] was 1.47% and the EOSINOPHIL [2] was 1%. For the same compound, the “ERYTHROCYTE COUNT” value [2] was 7.12 x10E6/uL, the HEMATOCRIT [2] was 45.47% and the HEMOGLOBIN [2] was 14.1 G/DL. The “LEUKOCYTE COUNT” value [2] was 11.38 x10E3/uL, the LYMPHOCYTE [2] was 82.57% and the “MEAN CORPUSCULAR HEMOGLOBIN” value [2] was 19.82 pg. The “MEAN CORPUSCULAR HEMOGLOBIN CONCENTRATION” value [2] was 31.02 G/DL, the “MEAN CORPUSCULAR VOLUME” value [2] was 63.88 fL and the MONOCYTE [2] was 2.2%. For the same compound, the NEUTROPHIL [2] was 11.97%, the “PLATELET COUNT” value [2] was 1267 x10E3/uL and the “ALANINE AMINOTRANSFERASE” value [2] was 38 u/L. The ALBUMIN [2] was 3.72 G/DL, the “ALKALINE PHOSPHATASE” value [2] was 391 u/L and the “ASPARTATE AMINOTRANSFERASE” value [2] was 65.83 u/L. The “BLOOD UREA NITROGEN” value [2] was 14.17 mg/dL, the CHLORIDE [2] was 107.67 MEQ/L and the CHOLESTEROL [2] was 61 mg/dL. For the same compound, the “CREATINE PHOSPHOKINASE” value [2] was 148.33 u/L, the CREATININE [2] was 0.57 mg/dL and the GLUCOSE [2] was 177.17 mg/dL. The PHOSPHORUS [2] was 12.07 mg/dL, the POTASSIUM [2] was 7.2 MEQ/L and the SODIUM [2] was 151.5 MEQ/L. The “TOTAL BILIRUBIN” value [2] was 0.58 mg/dL, the “TOTAL PROTEIN” value [2] was 6.72 G/DL and the BASOPHIL [3] was 0.53%. The EOSINOPHIL [3] was 0.4%, the “ERYTHROCYTE COUNT” value [3] was 6.91 x10E6/uL and the HEMATOCRIT [3] was 43%. The HEMOGLOBIN [3] was 13.7 G/DL, the “LEUKOCYTE COUNT” value [3] was 11.32 x10E3/uL and the LYMPHOCYTE [3] was 84.1%. For the same compound, the “MEAN CORPUSCULAR HEMOGLOBIN” value [3] was 19.8 pg, the “MEAN CORPUSCULAR HEMOGLOBIN CONCENTRATION” value [3] was 31.87 G/DL and the “MEAN CORPUSCULAR VOLUME” value [3] was 62.2 fL. For the same compound, the MONOCYTE [3] was 2.17%, the NEUTROPHIL [3] was 11.67% and the “PLATELET COUNT” value [3] was 1322.33 x10E3/uL. For the same compound, the “ALANINE AMINOTRANSFERASE” value [3] was 35 u/L, the ALBUMIN [3] was 3.63 G/DL and the “ALKALINE PHOSPHATASE” value [3] was 309 u/L. The “ASPARTATE AMINOTRANSFERASE” value [3] was 58.33 u/L, the “BLOOD UREA NITROGEN” value [3] was 13 mg/dL and the CHLORIDE [3] was 95.33 MEQ/L. The CHOLESTEROL [3] was 78.33 mg/dL, the “CREATINE PHOSPHOKINASE” value [3] was 150 u/L and the CREATININE [3] was 0.47 mg/dL. The GLUCOSE [3] was 190 mg/dL, the PHOSPHORUS [3] was 11.8 mg/dL and the POTASSIUM [3] was 6.2 MEQ/L. The SODIUM [3] was 139 MEQ/L, the “TOTAL BILIRUBIN” value [3] was 0.2 mg/dL and the “TOTAL PROTEIN” value [3] was 6.43 G/DL. The BASOPHIL [4] was 1.7%, the EOSINOPHIL [4] was 5.9% and the “ERYTHROCYTE COUNT” value [4] was 7.33 x10E6/uL. For the same compound, the HEMATOCRIT [4] was 45.75%, the HEMOGLOBIN [4] was 14.55 G/DL and the “LEUKOCYTE COUNT” value [4] was 9.46 x10E3/uL. For the same compound, the LYMPHOCYTE [4] was 42.8%, the “MEAN CORPUSCULAR HEMOGLOBIN” value [4] was 19.85 pg and the “MEAN CORPUSCULAR HEMOGLOBIN CONCENTRATION” value [4] was 31.85 G/DL. The “MEAN CORPUSCULAR VOLUME” value [4] was 62.35 fL, the MONOCYTE [4] was 1.7% and the NEUTROPHIL [4] was 47.25%. For the same compound, the “PLATELET COUNT” value [4] was 1408 x10E3/uL, the “ALANINE AMINOTRANSFERASE” value [4] was 30.33 u/L and the ALBUMIN [4] was 3.67 G/DL. The “ALKALINE PHOSPHATASE” value [4] was 296.33 u/L, the “ASPARTATE AMINOTRANSFERASE” value [4] was 52.67 u/L and the “BLOOD UREA NITROGEN” value [4] was 12.67 mg/dL. For the same compound, the CHLORIDE [4] was 104 MEQ/L, the CHOLESTEROL [4] was 61 mg/dL and the “CREATINE PHOSPHOKINASE” value [4] was 128.67 u/L. It also gave a CREATININE [4] of 0.43 mg/dL, a GLUCOSE [4] of 196 mg/dL and a PHOSPHORUS [4] of 12.73 mg/dL. The POTASSIUM [4] was 7.17 MEQ/L, the SODIUM [4] was 149.67 MEQ/L and the “TOTAL BILIRUBIN” value [4] was 0.43 mg/dL. The “TOTAL PROTEIN” value [4] was 6.7 G/DL.
